# In paper PMC8469090 (Pharmaceutics, 2021):
# Test system: cutaneous tumors (basal cell carcinoma, squamous cell carcinoma, melanoma, and others)
# Experiment: Tumor response 2 months after electrochemotherapy (RECIST 1.1)
# Details: for tumor complete response rate 2 months after therapy: biopsied tumors, electrochemotherapy with i.v. bleomycin 15,000 IU/m^2; for Tumor Response (All Tumors): electrochemotherapy, 2 months, RECIST 1.1
# Experimental: All patients who presented with skin cancers, recurrent disease (and/or metastatic disease) or a second primary tumor in the head and neck region were either not suitable for conventional treatments or refused them. The patients were treated with electrochemotherapy at the Department of Otorhinolaryngology and Cervicofacial Surgery, University Medical Centre Ljubljana, Slovenia or the Department of Dermatology and Allergology, University of Szeged, Hungary. […] Treatment with electrochemotherapy was previously agreed upon by a multidisciplinary board, and written informed consent was obtained from all eligible patients. The selection of patients was performed according to the NICE guidelines. The included patients were older than 18 years and presented with different histologies of cutaneous tumors (basal cell carcinoma, squamous cell carcinoma, melanoma, and others). […] In the study, altogether 25 patients were included; 8 patients younger than 65 for blood sample collection, 4 patients younger than 65 for blood and tumor sample collection and 13 patients for tumor sample collection with no age limitation.
# Electrochemotherapy was performed according to the updated standard operating procedures [24]. […] Electric pulses for electrochemotherapy were generated by a Cliniporator pulse generator (IGEA, s.r.l., Carpi, Italy) and delivered by fixed geometry electrodes, i.e., mainly electrodes with eight needles arranged in two rows of four needles each with a distance of 4 mm between the rows. In one application of electric pulses, eight pulses with a voltage of 400 V, a pulse duration of 100 µs and a frequency of 5000 Hz were applied. The number of applications was adjusted to the size of the treated tumors.
# The tumor volumes were calculated according to the SOP, i.e., a × b^2 × π/6. Tumor response 2 months after electrochemotherapy was evaluated with a clinical exam according to RECIST 1.1 criteria [25].
substance,measurement,setting,value
bleomycin,tumor complete response rate 2 months after therapy,BCC (8/9),89%
same,tumor complete response rate 2 months after therapy,SCC (4/5),80%
same,Tumor Response (All Tumors),"Table 3 patient 1 (BCC, 3 lesions, 24,000 IU)","1 CR, 2 PR"
same,Tumor Response (All Tumors),"Table 3 patient 5 (BCC, 5 lesions, 27,000 IU)","4 CR, 1 SD"
same,Tumor Response (All Tumors),"Table 3 patient 7 (BCC, 5 lesions, 24,000 IU)",5 CR
same,Tumor Response (All Tumors),"Table 3 patient 11 * (SCC, 6 lesions, 30,000 IU)",6 CR
same,Tumor Response (All Tumors),"Table 3 patient 15 * (Melanoma, 3 lesions, 29,100 IU)",3 CR
same,Tumor Response (All Tumors),"Table 3 patient 17 (Porocarcinoma, 2 lesions, 29,850 IU)",2 CR
same,Tumor Response (All Tumors),"Table 3 patient 19 (BCC, 16 lesions, 21,900 IU)","11 CR, 5 PR"
